Test results reported in patent US6025491A, “Water soluble onium salt of taxo-diterpenoid” (The Scripps Research Institute, priority 1998, dated 2000).
Structures can show the parent of a compound that is named as a salt. Where two headings read alike, the source gives them in different places.

How the values were obtained:
[1] = formulated in Cremaphor (polyoxyethylated castor oil) and ethanol; cited from earlier work
[2] = Protocol: The solubility and partition coefficient data for 2 and taxol were determined using an HPLC method.
Solubility was found by forming a solution in water with the aid of sonication for five minutes, centrifugation of the samples, and injection of the supernatant. The values reported were normalized using calibration curves constructed for both compounds by preparing known concentrations in the range 1×10^-6 to 1×10^-3 M in methylene chloride and subjecting to HPLC analysis under the same conditions. […] Partition coefficients were determined by dissolving the compound in the organic phase, shaking the resulting solution with water for ten minutes, and analyzing each phase by HPLC as above.

[3] = tested on: tubulin; experiment: microtubule (tubulin) polymerization-depolymerization measurements; format: biochemical; conditions: for suppression of calcium chloride promoted depolymerization: 10^-6 M drug, 0.25 mM CaCl2, OD 340 nm; for suppression of calcium chloride promoted depolymerization / microtubule polymerization-depolymerization: tubulin 1.0 mg/mL; for microtubule polymerization-depolymerization: 10^-6 drug, 1.0 mM GTP, 0.25 mM CaCl2, 37° C.
Protocol: Tubulin polymerization-depolymerization measurements are illustrate in FIG. 3. Negative controls are shown with triangles; positive taxol controls are shown with diamonds; and taxol-2'-MPT, i.e., compound 2 is shown with dots.
More particularly, measurement were performed in 96 well plates at 37° C. following the protocol of R. Merlock and W. Wrasidlo (Analytical Biochemistry 1993, in press). Calcium chloride addition is indicated by the arrow. In each case, 1.0 mM GTP was used to promote the initial polymerization of tubulin. Negative control employed tubulin (1.0 mg/mL) alone, CaCl2 (0.25 mM) added after 20 minutes. Positive taxol control employed tubulin (1.0 mg/mL) with taxol (10^-6 M) and CaCl2 (0.25 mM) added after 20 minutes. The experimental taxol-2'-MPTemployed tubulin (1.0 mg/mL) with taxol-2'-MPT (10^-6) and CaCl2 (0.25 mM) added after 20 minutes. Turbidity was measured as optical density at 340 nm using a microplate reader (Molecular Devices Thermomax).

[4] = tested on: cervical carcinoma; experiment: cytotoxicity (XTT), cervical carcinoma
Protocol: (§4) More particularly, cells were plated on 96 well plates with the following controls: no cells and toxic control (1×10^-3 M SDS). The drug was added to the first set of wells and diluted via standard dilution method from the stock. Plates were incubated at 37° C., 5% CO2 in sterile air in an humidified incubator for 72 hours. An aliquot of 50 μL of a solution of 2,3-bis(methoxy-4-nitro-5-sulfophenyl)-5-[(phenylamino) carbonyl]-1H-tetrazolium hydroxide (XTT), 1 mg mL^-1, in phosphate buffered saline (PBS, 100 mM) was added to the wells. In the presence of viable cells, this colorless clear media is enzymatically altered to give a pink coloration. The plates were read at 450 nm using a plate reader. Percentage cytotoxicity was calculated using the formula: % C=1-(OD toxin)(OD growth control)^-1 (100).

[5] = tested on: metastatic melanoma; experiment: cytotoxicity (XTT), metastatic melanoma
Protocol: as §4

[6] = background statement; cited from earlier work
[7] = tested on: human leukemia; experiment: cytotoxicity (XTT), human leukemia
Protocol: as §4

[8] = tested on: human leukemia
Protocol: as §4

[9] = tested on: cervical carcinoma
Protocol: as §4

[10] = stability measurements by HPLC (solid state and aqueous media); format: physicochemical; conditions: for stability duration: pH 6.0 to 7.3, 25° C.
Protocol: (§1) Due to a difference in retention time using our standard HPLC conditions (see FIG. 1) and differing ultraviolet absorption maxima (1280 /1254 =1.6 for 2 and 0.3 for 1), the stability of 2 was easily assayed by HPLC (FIG. 1). […] In phosphate buffered saline (PBS) or ammonium acetate--phosphate buffer systems of pH 6.0 to 7.3, 2 is stable at 25° C. for over 21 days. Taxol-2'-MPT (2) is, however, unstable in 5% HCl (pH 1.1) and brine.
(§2) Under these conditions 20% of total is recovered. More particularly, Taxol-2'-MPT (2) was dissolved in the aqueous system with the aid of sonication for five minutes. Aliquots were then removed at the times shown and partitioned into methylene chloride to quench the reaction. Samples were then analyzed using a Waters Maxima HPLC instrument equipped with an autoinjector (3.9×300 mm C18 column equipped with a precolumn. The flow rate was 1.5 mL/minute. The eluent gradient A-B extended over 30 minutes. "A" was 80% 80 mM ammonium acetate, pH 6.0. "B" was 100% methanol. An ultraviolet diode array detector was employed. The ratio of compound 2 (Rf 16.2 min.) to taxol (compound 1, Rf 16.8 min.) remaining was determined from the relative areas of the peaks after normalization with previously determined calibration curves.

[11] = tested on: immunoglobulins; experiment: displacement of MPT group by immunoglobulins; format: in vitro ADME
Description: (§3) However, the release of taxol from taxol-2'-MPT can also be catalyzed by serum protein and by proteins having nucleophilic groups. […] Dialysis of the protein:taxol intermediate indicates a dissociation period of hours or days. Displacement of the MPT group by serum proteins seems to be specific for such serum proteins. […] The precise nature of the bonding between the protein and taxol has not been characterized. Scheme 2 illustrates alternative pathways for MPT release.

[12] = tested on: serum albumen; experiment: displacement of MPT group by serum albumen; format: in vitro ADME
Description: as §3

[13] = kinetics of taxol release from taxol-2'-MPT in aqueous solutions; format: physicochemical; conditions: 25° C.; for taxol release: over 11 minutes
Protocol: as §2

[14] = tested on: serum protein; experiment: displacement of MPT group by serum protein, dialysis of protein:taxol intermediate; format: in vitro ADME; conditions: contacted with serum protein
[15] = tested on: A549 non-small cell lung adenocarcinoma xenograft; experiment: efficacy in lung tumor xenograft nude mouse model; format: in vivo, nude mice (human lung carcinoma xenografts); conditions: I.P. day 1, 3 and 7; taxol 18.0 mg/kg in Cremaphor/D5W; 2 at 23.9 mg/kg
Protocol: The tumor model was generated from an ATCC A549 non-small cell lung adenocarcinoma cell line that was maintained under the standard cell proliferation conditions (37° C., 5% carbon dioxide in sterile air). Hemocytometer counted cells suspended in Hanks medium (Gibco, Grand Island N.Y.) were implanted S.C.

[16] = taxol release / breakdown of taxol-2'-MPT in plasma; format: in vitro ADME, human
Protocol: as §1, §2

[17] = tested on: metastatic melanoma
Protocol: as §4

[18] = tested on: non-serum proteins; experiment: displacement of MPT group by non-serum proteins; format: in vitro ADME; conditions: tested non-serum proteins
Description: as §3

[19] = self-assembly: optical density at 340 nm and transmission electron microscopy; format: physicochemical
Description: Transmission electron microscopy (TEM) confirmed the presence of supramolecular structures in these solutions. […] It is likely that the long term stability of these solutions is due, at least in part, to stabilization provided by this structured environment.

SMILES: CC(=O)O[C@H]1C(=O)[C@@]2(C)[C@H]([C@H](OC(=O)c3ccccc3)[C@]3(O)C[C@H](OC(=O)[C@H](O)[C@@H](NC(=O)c4ccccc4)c4ccccc4)C(C)=C1C3(C)C)[C@]1(OC(C)=O)CO[C@@H]1C[C@@H]2O [taxol]
- side effects of formulation [1]: hypersensitivity reactions
- Partition Coefficient [octanol]/[water] [2]: > 10000
- Solubility in Water ([2]; water): < 1.5 µM
- suppression of calcium chloride promoted depolymerization [3]: suppressed by taxol
- microtubule stabilization by taxol recovered from plasma treated with 2 ([3]; taxol recovered from human plasma treated with 2): exhibited the expected microtubule stabilization
- cytotoxicity level [4]: Extremely high
- cytotoxicity level [5]: Extremely high
- water solubility [6]: less than 1.5×10^-6 M
- cytotoxicity level [7]: Extremely high

SMILES: CC(=O)O[C@H]1C(=O)[C@@]2(C)[C@H]([C@H](OC(=O)c3ccccc3)[C@]3(O)C[C@H](OC(=O)[C@H](Oc4cccc[n+]4C)[C@@H](NC(=O)c4ccccc4)c4ccccc4)C(C)=C1C3(C)C)[C@]1(OC(C)=O)CO[C@@H]1C[C@@H]2O [taxol-2'-MPT, Taxol-2'-MPT (methylpyridinium tosylate)]
- cytotoxicity level [8]: Extremely high
- cytotoxicity level [9]: Extremely high
- stability ([10]; 5% HCl (pH 1.1)): unstable
- stability duration ([10]; ammonium acetate--phosphate buffer systems): over 21 days
- stability ([10]; aqueous media at physiological pH and ion strength): essentially completely stable
- stability ([10]; brine): unstable
- stability, onset of slow degradation ([10]; in 1.5% saline): > 4 days
- stability, onset of slow degradation ([10]; in 5% dextrose): > 4 days
- stability, onset of slow degradation ([10]; in water): > 4 days
- stability duration ([10]; phosphate buffered saline (PBS)): over 21 days
- solubility in water compared with taxol [2]: significantly more soluble in water than the parent taxol
- effectiveness in displacing the MPT group [11]: particularly effective
- effectiveness in displacing the MPT group [12]: particularly effective
- taxol release ([13]; 5% dextrose): no taxol release is observed
- stability in water and aqueous buffer solutions [13]: stable in water and aqueous buffer solutions
- taxol release ([13]; pH 6.2 phosphate buffered saline): no taxol release is observed
- taxol release ([13]; sterile water): no taxol release is observed
- suppression of calcium chloride promoted depolymerization [3]: not by taxol-2'-MPT
- microtubule polymerization-depolymerization ([3]; listed as 2): does not affect the tubulin-microtubule equilibria
- microtubule polymerization-depolymerization ([3]; listed as taxol-2'-MPT (2)): very similar to GTP-saline controls and drastically different from taxol
- binding to tubulin in the manner of taxol ([3]; buffered aqueous environment): does not appear to bind to tubulin in the manner of taxol
- reaction with serum protein [14]: observed to displace its MPT group and form a protein:taxol intermediate
- control of tumor growth compared with taxol [15]: at least comparable to that of taxol
- breakdown in human plasma ([16]; incubated at 37° C. with human plasma): breaks down rapidly
- time to complete conversion of 2 into taxol ([16]; plasma, methylene chloride extraction, 25° C.): ≤ 10 min
- taxol discharge in sera ([16]; sera): rapidly discharges taxol in sera
- cytotoxicity level [17]: Extremely high
- activity in displacing the MPT group [18]: seemed to lack this activity
- critical concentration for exponential increase in optical density (critical aggregation concentration) ([19]; OD 340 nm, buffered solutions): 400 µM
- diameter of fibrillar aggregates ([19]; TEM, fibrillar structure): ca. 80 Å
- helical twist of fibrillar aggregates ([19]; TEM, fibrillar structure): about 7
- length of fibrillar aggregates ([19]; TEM, fibrillar structure): up to 800 Å
- diameter of spherical structures ([19]; TEM, freshly sonicated solutions): about 50 Å
- concentration above which haze and diffuse light scattering appear ([19]; buffered solutions): greater than 1×10^-3 M
- appearance of water solutions ([19]; water, all concentrations examined): optically clear
